Patent US8178538B2, “Pyridazinones” (Hoffmann-La Roche Inc., priority 2008, dated 2012)

Target: T1, PDE10A2 (Homo sapiens, UniProt Q9Y233)
T1 construct: residues serine 449 to aspartate 789; His6 (H6) with thrombin cleavage site (N, cleaved yes); made in house; host or cells: E. coli BL21(DE3) pLysS
Assay: PDE10A2 inhibition, Scintillation Proximity Assay (SPA)
Type: biochemical
Conditions: catalytic domain of human PDE10A2 (S449-D789), 0.25 nM enzyme, 50 nM cGMP + 50 nM [3H]-cGMP, 30 minutes at room temperature
Protocol: The following tests were carried out in order to determine the activity of the compounds of the present invention. PDE10 activity of the compounds of the present invention is determined using a Scintillation Proximity Assay (SPA)-based method similar to the one previously described (Fawcett, L. et al., Proc Natl Acad Sci USA (2000) 97(7):3702-3707).
PDE10A1 and PDE10A2 are two splice variants of PDE10A. There are these 2 splice variants known, which differ in the N-terminal part of the protein. The catalytic domains of PDE10A1 and PDE10A2 are identical. The assay for PDE10A2 described below is therefore also representative for PDE10A1 and also for PDE10A in general.
The PDE10A2 assay was performed in a two step procedure in 96-well micro titer plates. The reaction mixture of 80 μl contained 20 mM HEPES/10 mM MgCl2/[…] (pH 7.5), 50 nM cGMP (Sigma) and 50 nM [^3H]-cGMP (GE Healthcare), 0.25 nM PDE10A2 with or without a specific test compound. A range of concentrations of the potential inhibitor was used to generate data for calculating the concentration of inhibitor resulting in 50% of the effect (e.g. IC50, the concentration of the competitor inhibiting PDE10A2 activity 50%). Non-specific activity was tested without the enzyme. The reaction was initiated by addition of the substrate solution (cGMP and [^3H]-cGMP) and allowed to progress for 30 minutes at room temperature. The reaction was terminated by transferring 50 μl of the reaction mixture into an OptiPlate (Perkin Elmer) containing 25 μl of YSi-SPA scintillation beads (GE Healthcare) in 18 mM zinc sulphate solution (stop reagent). After 1 h under shaking, the plate was centrifuged one minute at 1000 rpm to allow beads to settle. Afterwards, radioactive counts were measured on a Perkin Elmer TopCount Scintillation plate reader.
The catalytic domain of human PDE10A2, residues serine 449 to aspartate 789, was amplified by PCR using cDNA (Origene) and the oligonucleotides 5′-GGGGACAAGTTT […]-3′ (SEQ ID NO. 1) (with AttB1 recombination site in bold and thrombin protease cleavage site in italics) and 5′-[…] GCTG-3′ (SEQ ID NO. 2) (with AttB2 recombination site in bold) which conferred Gateway recombination sites. The PCR product was used in a BP recombination reaction with pDONR221 to generate pENTR Thm-PDE10A2(S449-D789) which was DNA sequence verified and then used in an LR recombination reaction with a Gateway modified version of pET11a. The resulting expression vector, placT7.2H6-(gw1)-Thm-PDE10A2(S449-D789) was DNA sequence confirmed and transformed into E. coli strain BL21(DE3) pLysS and recombinant protein was produced in TB medium at 20° C. by induction to a final IPTG concentration of 0.5 mM at an optical density of 1.0 at 600 nm for 20 hours. About 30% of the protein was in the soluble fraction of the cell homogenate. The protein was purified using sequential chromatography on Ni-NTA and HiTrapQ/HiTrapS. After thrombin digest at room temperature a HiTrapChelating/HiTrap Benzamindin chromatography removed impurities, uncleaved protein and thrombin. Final purification of PDE10A2(S449-D789) was performed on a Superdex 75 size exclusion chromatography equilibrated with 25 mM HEPES pH 8.4, 0.15 M NaCl. The yield of pure protein was 2 mg/liter of culture volume is relatively low. The purity of the protein was >95%, monomeric and monodisperse as shown by SDS-PAGE, HPLC and analytical ultracentrifugation.

T1 sequence (Q9Y233 715-1055): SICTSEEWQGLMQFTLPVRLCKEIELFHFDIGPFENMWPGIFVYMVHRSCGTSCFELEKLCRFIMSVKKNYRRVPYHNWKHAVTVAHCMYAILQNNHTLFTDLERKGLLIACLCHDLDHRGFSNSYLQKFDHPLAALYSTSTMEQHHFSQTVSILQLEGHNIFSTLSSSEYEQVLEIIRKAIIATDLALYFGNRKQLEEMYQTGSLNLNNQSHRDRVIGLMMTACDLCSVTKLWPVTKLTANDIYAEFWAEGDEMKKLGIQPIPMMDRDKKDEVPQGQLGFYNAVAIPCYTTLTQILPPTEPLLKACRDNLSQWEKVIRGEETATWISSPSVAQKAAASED

Compound	IC50
CS(=O)(=O)c1ccc(-n2ccc(=O)c(-c3ccnn3-c3cccc4cnccc34)n2)cc1 [Example 192, 3-(2-Isoquinolin-5-yl-2H-pyrazol-3-yl)-1-(4-methanesulfonyl-phenyl)-1H-pyridazin-4-one]	13 nM
CCOc1cc(-n2nccc2-c2nn(-c3ccc(OC(F)(F)F)cc3)ccc2=O)ccn1 [Example 200, 3-[2-(2-Ethoxy-pyridin-4-yl)-2H-pyrazol-3-yl]-1-(4-trifluoromethoxy-phenyl)-1H-pyridazin-4-one]	46 nM
O=c1ccn(-c2cccc(OC(F)(F)F)c2)nc1-c1ccnn1-c1cccc2ncccc12 [Example 203, 3-(2-Quinolin-5-yl-2H-pyrazol-3-yl)-1-(3-trifluoromethoxy-phenyl)-1H-pyridazin-4-one]	13 nM
O=c1ccn(-c2cccc(OC(F)F)c2)nc1-c1ccnn1-c1cccc(Cl)c1 [Example 206, 3-[2-(3-Chloro-phenyl)-2H-pyrazol-3-yl]-1-(3-difluoromethoxy-phenyl)-1H-pyridazin-4-one]	17 nM
N#Cc1cccc(-n2ccc(=O)c(-c3ccnn3-c3ccnc4ccccc34)n2)c1 [Example 207, 3-[4-Oxo-3-(2-quinolin-4-yl-2H-pyrazol-3-yl)-4H-pyridazin-1-yl]-benzonitrile]	5 nM
Cc1ccccc1-n1nccc1-c1nn(-c2ccc(C(F)(F)F)cc2)ccc1=O [Example 216, 3-(2-o-Tolyl-2H-pyrazol-3-yl)-1-(4-trifluoromethyl-phenyl)-1H-pyridazin-4-one]	20 nM
O=c1ccn(-c2ccc(OC(F)(F)F)cc2)nc1-c1ccnn1-c1ccnc2ccc(Cl)cc12 [Example 224, 3-[2-(6-Chloro-quinolin-4-yl)-2H-pyrazol-3-yl]-1-(4-trifluoromethoxy-phenyl)-1H-pyridazin-4-one]	22 nM
O=c1ccn(-c2ccc(S(=O)(=O)C(F)(F)F)cc2)nc1-c1ccnn1-c1ccccc1F [Example 232, 3-[2-(2-Fluoro-phenyl)-2H-pyrazol-3-yl]-1-(4-trifluoromethanesulfonyl-phenyl)-1H-pyridazin-4-one]	12 nM
O=c1ccn(-c2ccc(C(F)(F)F)cc2)nc1-c1ccnn1-c1ccc(Cl)c2ccccc12 [Example 237, 3-[2-(4-Chloro-naphthalen-1-yl)-2H-pyrazol-3-yl]-1-(4-trifluoromethyl-phenyl)-1H-pyridazin-4-one]	101 nM
O=c1ccn(-c2cccc(Cl)c2)nc1-c1ccnn1-c1ccc(Cl)c2ccccc12 [Example 244, 3-[2-(4-Chloro-naphthalen-1-yl)-2H-pyrazol-3-yl]-1-(3-chloro-phenyl)-1H-pyridazin-4-one]	46 nM
O=c1ccn(-c2ccc(OCC(F)(F)F)cc2)nc1-c1ccnn1-c1ccccc1F [Example 255, 3-[2-(2-Fluoro-phenyl)-2H-pyrazol-3-yl]-1-[4-(2,2,2-trifluoro-ethoxy)-phenyl]-1H-pyridazin-4-one]	5 nM
O=c1ccn(-c2ccc(OCC(F)(F)F)cc2)nc1-c1ccnn1-c1cccc(Cl)c1 [Example 257, 3-[2-(3-Chloro-phenyl)-2H-pyrazol-3-yl]-1-[4-(2,2,2-trifluoro-ethoxy)-phenyl]-1H-pyridazin-4-one]	3 nM
O=c1ccn(-c2ccc(OCC(F)(F)F)cc2)nc1-c1ccnn1-c1ccnc2ccccc12 [Example 259, 3-(2-Quinolin-4-yl-2H-pyrazol-3-yl)-1-[4-(2,2,2-trifluoro-ethoxy)-phenyl]-1H-pyridazin-4-one]	1 nM
O=c1ccn(-c2cccc(S(=O)(=O)N3CCCCC3)c2)nc1-c1ccnn1-c1ccnc2ccc(Cl)cc12 [Example 267, 3-[2-(6-Chloro-quinolin-4-yl)-2H-pyrazol-3-yl]-1-[3-(piperidine-1-sulfonyl)-phenyl]-1H-pyridazin-4-one]	40 nM
O=c1ccn(-c2cccc(O)c2)nc1-c1ccnn1-c1ccc2c(c1)OCCO2 [Example 277, 3-[2-(2,3-Dihydro-benzo[1,4]dioxin-6-yl)-2H-pyrazol-3-yl]-1-(3-hydroxy-phenyl)-1H-pyridazin-4-one]	4 nM
O=c1ccn(-c2cccc(S(=O)(=O)C(F)(F)F)c2)nc1-c1ccnn1-c1ccccc1 [Example 281, 3-(2-Phenyl-2H-pyrazol-3-yl)-1-(3-trifluoromethanesulfonyl-phenyl)-1H-pyridazin-4-one]	17 nM
N#Cc1cccc(-n2nccc2-c2nn(-c3cccc(S(=O)(=O)C(F)(F)F)c3)ccc2=O)c1 [Example 284, 3-{5-[4-Oxo-1-(3-trifluoromethanesulfonyl-phenyl)-1,4-dihydro-pyridazin-3-yl]-pyrazol-1-yl}-benzonitrile]	11 nM
N#Cc1cccc(-n2ccc(=O)c(-c3ccnn3-c3cccc(Cl)c3)n2)c1 [Example 287, 3-{3-[2-(3-Chloro-phenyl)-2H-pyrazol-3-yl]-4-oxo-4H-pyridazin-1-yl}-benzonitrile]	15 nM
CC(=O)Nc1cccc(-n2ccc(=O)c(-c3ccnn3-c3ccccc3F)n2)c1 [Example 292, N-(3-{3-[2-(2-Fluoro-phenyl)-2H-pyrazol-3-yl]-4-oxo-4H-pyridazin-1-yl}-phenyl)-acetamide]	21 nM
CNC(=O)c1cccc(-n2ccc(=O)c(-c3ccnn3-c3ccccc3F)n2)c1 [Example 293, 3-{3-[2-(2-Fluoro-phenyl)-2H-pyrazol-3-yl]-4-oxo-4H-pyridazin-1-yl}-N-methyl-benzamide]	38 nM
CC(=O)N(C)c1cccc(-n2ccc(=O)c(-c3ccnn3-c3ccccc3F)n2)c1 [Example 294, N-(3-{3-[2-(2-Fluoro-phenyl)-2H-pyrazol-3-yl]-4-oxo-4H-pyridazin-1-yl}-phenyl)-N-methyl-acetamide]	6 nM
O=C(OCCF)c1cccc(-n2ccc(=O)c(-c3ccnn3-c3cccc4ccccc34)n2)c1 [Example 295, 3-[3-(2-Naphthalen-1-yl-2H-pyrazol-3-yl)-4-oxo-4H-pyridazin-1-yl]-benzoic acid 2-fluoro-ethyl ester]	2 nM
CC(O)c1cccc(-n2ccc(=O)c(-c3ccnn3-c3ccccc3F)n2)c1 (centres unmarked) [Example 298, 3-[2-(2-Fluoro-phenyl)-2H-pyrazol-3-yl]-1-[3-(1-hydroxy-ethyl)-phenyl]-1H-pyridazin-4-one]	26 nM
